Drawing on US6461664B1, “Chelated feed additive and method of preparation” (Agristudio S. r. L., priority 1999, dated 2002), this text covers solubility in water for 1 substance.

A short description of this data set: solubility in water of the dried chelate. In kind it is physicochemical. To be noted: ambient temperature, white powder. On the procedure:
In the case described, the dried chelate is in the form of a white powder, with a melting point of about 248° C. and a solubility in water of about 20 g/l at ambient temperature.

On to (CH3SCH2CH2CHOHCO)2Zn [Example 1], for which the solubility in water result is on record as “about 20 g/l”.
